Measurements: article PMC9467586, “Development of novel 9-O-substituted-13-octylberberine derivatives as potential anti-hepatocellular carcinoma agents” (Journal of Enzyme Inhibition and Medicinal Chemistry, 2022)

What was measured:
c-MYC G4 DNA (FPu18T) = assay: FRET-melting assay, FPu18T (c-MYC G4 DNA model); settings: 2 μM compounds
[1] = test system: Bax, Bcl-2, cytochrome C and caspase-3; assay: Western blot of apoptosis-related proteins; assay type: cell-based, human; settings: HepG2, 72 h, concentration-dependent
Protocol: HepG2 cells were incubated with different doses of 6k for 72 h. Cells were collected, centrifuged, and washed two times with ice-cold PBS. The pellet was then re-suspended in lysis buffer. After the cells were lysed on ice for 20 min, lysates were centrifuged at 13000 g at 4 °C for 15 min. The protein concentration in the supernatant was determined using the BCA protein assay reagents. Equal amounts of protein (20 μg) were resolved using sodium dodecyl sulfate-polyacrylamide gel electrophoresis (SDS-PAGE) (10–12% acrylamide gels) and transferred to PVDF membrane. Membranes were blocked for 1 h at room temperature. Membranes were then incubated with primary antibodies against p-cdc25c, cdc2, cyclin B1, Bax, Bcl-2, cytochrome C, caspase-3, VDAC1 and β-actin, the membrane being gently rotated overnight at 4 °C. The bound antibodies were detected using horseradish peroxidase (HRP)-conjugated second antibodies and visualised by the enhanced chemiluminescent reagent.

Huh-7 cells = assay: In vitro antiproliferative MTT assay, Huh-7 cells; assay type: cell-based, human; settings: Homo sapiens, 72 h, mean ± SD (n = 3)
Protocol: (§1) HepG2, Sk-Hep-1, Huh-7, Hep3B and L-02 cells were purchased from Nanjing Key Gen Biotech Co. Ltd. (Nanjing, China). The cytotoxicity of test compounds was determined using an MTT assay. Briefly, the cell lines were incubated at 37 °C in a humidified 5% CO2 incubator for 24 h in 96-microwell plates. After medium removal, 100 μL of culture medium with 0.1% DMSO containing test compounds at different concentrations was added to each well and incubated at 37 °C for another 72 h. The MTT (5 mg/mL in PBS) was added and incubated for another 4 h, the optical density was detected with a microplate reader at 490 nm. The IC50 values were calculated according to the dose-dependent curves. All the experiments were repeated in at least three independent experiments.

HepG2 cells = assay: Cell cycle analysis by PI staining and flow cytometry; assay type: cell-based, human; settings: for G2 phase cell percentage: 72 h (control 18.00%); for S phase cell percentage: 72 h (control 22.95%); for G1 phase cell percentage: 72 h (control 59.05%)
Protocol: HepG2 cells were seeded into 6-well plates and incubated at 37 °C in a humidified 5% CO2 incubator for 24 h, and then treated with or without 6k at indicated concentrations for another 72 h. The collected cells were fixed by adding 70% ethanol at 4 °C for 12 h. Subsequently, the cells were resuspended in PBS containing 100 μL RNase A and 400 μL of PI for 30 min. The DNA content of the cells was measured using a FACS Calibur flow cytometer (BectoneDickinson, San Jose, CA, USA).

[2] = test system: human hepatoma cells including HepG2, Sk-Hep-1 and Huh-7 cells; assay: Antiproliferative MTT assay, summary over human hepatoma cells; assay type: cell-based; settings: read-out: IC50 values against human hepatoma cells (span over cell lines)
Protocol: as §1

Hep3B cells = assay: In vitro antiproliferative MTT assay, Hep3B cells; assay type: cell-based, human; settings: Homo sapiens, 72 h, mean ± SD (n = 3)
Protocol: as §1

[3] = test system: H22 liver cancer xenograft; assay: In vivo anti-HCC assay, H22 liver cancer xenograft mouse model; parameters: species or system mice; settings: intravenous; for tumour inhibitory rate (TIR, w/w): once a day for 21 days, H22 mice
Protocol: Five-week-old male Institute of Cancer Research (ICR) mice were purchased from Shanghai SLAC Laboratory Animals Co. Ltd. Briefly, a total of 1 × 10^6 H22 cells were subcutaneously inoculated into the right flank of ICR mice according to protocols of tumour transplant research, to initiate tumour growth. After incubation for one day, mice were weighed and randomly divided into 5 groups of 8 animals. The groups were administered berberine (30 mg/kg) and 6k (15 or 30 mg/kg) in a vehicle of 10% DMF/2% Tween 80/88% saline, respectively. Vehicle and cyclophosphamide (20 mg/kg) were employed as negative and positive controls, respectively. Treatments were performed by intravenous injection once per day for a total of 21 consecutive days. Body weights and tumour volumes were measured every 2 days. The mice were sacrificed after the treatments, and the tumours were excised and weighed. The tumour volume and inhibition rate (w/w) were calculated as follows: tumour volume = L × W^2/2, where L is the length and W is the width; tumour inhibitory ratio (%) = (1-average tumour weight of treated group/average tumour weight of control group) × 100%. All procedures were performed following institutional approval in accordance with the NIH Guide for the Care and Use of Laboratory Animals.

[4] = Aqueous solubility measurement by HPLC; assay type: physicochemical; settings: 25 °C, pH 7.4, aqueous buffer, thermodynamic from solid
Protocol: Berberine, 3c and 6k (5 mg) were dissolved in 1 ml PBS (50 mM, pH 7.4) at 25 °C. The suspension was sonicated for 30 min and then centrifuged at 15000 g for 5 min. The supernatant was filtered through a PTFE filter (0.2 μm) slowly. Then 10 μL filtered solution was injected into the HPLC system (Shimadzu DGU-20A3R) on a Shimadzu-GL WondaSil C18-WR column and quantified using the standard curves made by the corresponding known concentrations of berberine, 3c and 6k. The eluent was methanol/water (65/35, v/v) at a flow rate of 1.0 ml/min with the detection wavelength at 254 nm.

normal hepatocytes L-02 = assay: MTT cytotoxicity assay, normal hepatocytes L-02; assay type: cell-based; settings: Hepatocyte; normal hepatocytes L-02, MTT, 72 h, mean ± SD (n = 3)
Protocol: as §1

[5] = LWP coefficient (log D) measurement, shake flask; assay type: physicochemical; settings: pH 7.4
Protocol: Berberine, 3c and 6k of 1 mg were dissolved in three centrifugal tubes (5 ml) containing phosphate buffer (pH 7.4)-saturated 1-octanol solution (2 mL), followed by the addition of 1-octanol saturated PBS (2 mL). Each tube was vigorously mixed for 1 min and then shaken for 6 h at a speed of 1000 rpm at 37 °C. The mixtures were then centrifuged. 1 mL of 1-octanol phase and 1 mL of buffer were separately collected. Each phase was diluted to a suitable concentration and analysed by HPLC (Shimadzu DGU-20A3R) on a Shimadzu-GL WondaSil C18-WR column (λ = 254 nm) with an eluent of methanol/water (65/35, v/v, 1.0 ml/min). The log D value for each compound was calculated from the ratio of the peak areas using the following equation: Log D = log (Areaoct × x/Areabuf × y). x, y is the dilution factor.

For `CCCCCCCCc1c2[n+](cc3c(OCCCCCCCCN4CCN(C)CC4)c(OC)ccc13)CCc1cc3c(cc1-2)OCO3.[Br-]` [Compound 6k, 10-Methoxy-9-((8–(4-methylpiperazin-1-yl)octyl)oxy)-13-octyl-5,6-dihydro-[1,3]dioxolo[4,5-g]isoquinolino[3,2-a]isoquinolin-7-ium bromide], the “ΔTm(A) = Tm(FPu18T + compound) - Tm(FPu18T)” value (c-MYC G4 DNA (FPu18T)) was 13.8 °C, the Bax expression [1] was “upregulated Bax expression” and the Bcl-2 expression [1] was “downregulated Bcl-2 expression”. The caspase-3 [1] was “activated caspase-3”, the “cytochrome C release” value [1] was “promoted cytochrome C release” and the IC50 (Huh-7 cells) was 0.62 ± 0.04 µM. For the same molecule, the “Effect on cell cycle progression” value (HepG2 cells; HepG2, 0.25-1.0 μM, 72 h) was “cell cycle arrest at G2/M phase”, the “G2 phase cell percentage” value (HepG2 cells; HepG2, 6k 0.25 μM) was 23.56% and the “S phase cell percentage” value (HepG2 cells; HepG2, 6k 0.25 μM) was 16.19%. For the same molecule, the “G1 phase cell percentage” value (HepG2 cells; HepG2, 6k 0.25 μM) was 60.24%, the “G2 phase cell percentage” value (HepG2 cells; HepG2, 6k 0.50 μM) was 29.49% and the “S phase cell percentage” value (HepG2 cells; HepG2, 6k 0.50 μM) was 22.68%. The “G1 phase cell percentage” value (HepG2 cells; HepG2, 6k 0.50 μM) was 47.82%, the “G2 phase cell percentage” value (HepG2 cells; HepG2, 6k 1.0 μM) was 32.16% and the “S phase cell percentage” value (HepG2 cells; HepG2, 6k 1.0 μM) was 26.95%. The “G1 phase cell percentage” value (HepG2 cells; HepG2, 6k 1.0 μM) was 40.88%, the “total cell percentages of G1 and S phases” value (HepG2 cells; HepG2, 6k 1.0 μM, 72 h (control 82.00%)) was 67.83% and the IC50 [2] was 0.62 to 1.69 µM. For the same molecule, the IC50 (Hep3B cells) was 1.6 ± 0.11 µM, the “tumour inhibitory rate (TIR, w/w)” value ([3]; 15 mg/kg) was 50.4% and the “tumour inhibitory rate (TIR, w/w)” value ([3]; 30 mg/kg) was 61.1%. For the same molecule, the “mice body weights during treatment” value ([3]; 15 or 30 mg/kg, 21 days) was “didn’t cause significant loss in mice body weights”, the solubility at 30 min [4] was 1.08 mg/mL and the IC50 (normal hepatocytes L-02) was 7.68 ± 0.67 µM. It also gave a logD [5] of 3.87.
